In publication PMC8286840, “Identifying SARS-CoV-2 antiviral compounds by screening for small molecule inhibitors of Nsp3 papain-like protease” (Biochemical Journal, 2021):
Counter-ions that a name gives are not always drawn. Like-named read-outs stand apart in the source and are kept apart here.

Key:
[1] = molecular target: T1, SARS-CoV-2 PLpro (nsp3 1564–1878) (Severe acute respiratory syndrome coronavirus 2, UniProt P0DTD1); experiment: biochemical; design: FRET-quenched peptide (Pro3) cleavage by PLpro, 10 min pre-incubation, slope over 20 min, normalised to no-compound control; conditions: high concentration screen, read-out: % of control remaining
[2] = molecular target: T1, SARS-CoV-2 PLpro (nsp3 1564–1878); experiment: biochemical; design: FRET-quenched peptide (Pro3) cleavage by PLpro, 10 min pre-incubation, slope over 20 min, normalised to no-compound control; conditions: low concentration screen, read-out: % of control remaining

For `CC(C)[C@@]1(NC(=O)[C@@H]2C=C3c4cccc5[nH]cc(c45)C[C@H]3N(C)C2)O[C@@]2(O)[C@@H]3CCCN3C(=O)[C@H](Cc3ccccc3)N2C1=O` [Ergocristine], which remaining activity at 3.75 µM ([1]; Well no.=561) is on record?
Its remaining activity at 3.75 µM is 102%.

And the remaining activity at 1.25 µM ([2]; Well no.=561)?
The remaining activity at 1.25 µM was 105%.

With `CC(C)[C@@H](C)/C=C/[C@@H](C)[C@H]1CC[C@H]2C3=CC=C4C[C@@H](O)CC[C@]4(C)[C@H]3CC[C@]12C` [Ergosterol] as the molecule, how does the remaining activity at 3.75 µM ([1]; Well no.=5194) read?
The remaining activity at 3.75 µM was 101%.

What about the remaining activity at 1.25 µM ([2]; Well no.=5194) of the same molecule?
The remaining activity at 1.25 µM was 102%.

Which remaining activity at 3.75 µM ([1]; Well no.=1726) does the source give for `CN1C[C@H](C(=O)N[C@]2(C)O[C@@]3(O)[C@@H]4CCCN4C(=O)[C@H](Cc4ccccc4)N3C2=O)C=C2c3cccc4[nH]cc(c34)C[C@H]21` [Ergotamine] here?
The remaining activity at 3.75 µM was 98.3%.

And the remaining activity at 1.25 µM ([2]; Well no.=1726)?
Its remaining activity at 1.25 µM is 99.5%.

Which remaining activity at 3.75 µM ([1]; Well no.=1612) does the source give for `C[N+](C)(C)[C@@H](Cc1c[nH]c(=S)[nH]1)C(=O)[O-]` [Ergothioneine] here?
Its remaining activity at 3.75 µM is 98.8%.

What about the remaining activity at 1.25 µM ([2]; Well no.=1612) of the same molecule?
Its remaining activity at 1.25 µM is 100%.

Which remaining activity at 3.75 µM ([1]; Well no.=3257) does the source give for `C[C@@H]1O[C@@H](OC[C@H]2O[C@@H](Oc3cc(O)c4c(c3)O[C@H](c3ccc(O)c(O)c3)CC4=O)[C@H](O)[C@@H](O)[C@@H]2O)[C@H](O)[C@H](O)[C@H]1O` [Eriocitrin] here?
Its remaining activity at 3.75 µM is 97.1%.

What about the remaining activity at 1.25 µM ([2]; Well no.=3257) of the same molecule?
The remaining activity at 1.25 µM was 98.6%.

How did the remaining activity at 3.75 µM ([1]; Well no.=3261) turn out when `O=C1C[C@@H](c2ccc(O)c(O)c2)Oc2cc(O[C@@H]3O[C@H](CO)[C@@H](O)[C@H](O)[C@H]3O)cc(O)c21` [Eriodictyol-7-O-glucoside] was run?
The remaining activity at 3.75 µM was 95.5%.

What about the remaining activity at 1.25 µM ([2]; Well no.=3261) of the same molecule?
The remaining activity at 1.25 µM was 96.6%.

Which remaining activity at 3.75 µM ([1]; Well no.=3259) does the source give for `O=C1C[C@@H](c2ccc(O)c(O)c2)Oc2cc(O)cc(O)c21` [Eriodictyol] here?
The remaining activity at 3.75 µM was 103%.

And the remaining activity at 1.25 µM ([2]; Well no.=3259)?
Its remaining activity at 1.25 µM is 104%.

Which remaining activity at 3.75 µM ([1]; Well no.=5126) does the source give for `CCOC(=O)CCC(=O)O[C@H]1[C@H](O[C@@H]2[C@@H](C)[C@H](O[C@H]3C[C@@](C)(OC)[C@@H](O)[C@H](C)O3)[C@@H](C)C(=O)O[C@H](CC)[C@@](C)(O)[C@H](O)[C@@H](C)C(=O)[C@H](C)C[C@@]2(C)O)O[C@H](C)C[C@@H]1N(C)C` [Erythromycin Ethylsuccinate] here?
The remaining activity at 3.75 µM was 102%.

What about the remaining activity at 1.25 µM ([2]; Well no.=5126) of the same molecule?
Its remaining activity at 1.25 µM is 100%.

For `CN(C)CCC[C@@]1(c2ccc(F)cc2)OCc2cc(C#N)ccc21` [Escitalopram Oxalate], which remaining activity at 3.75 µM ([1]; Well no.=5128) is on record?
The remaining activity at 3.75 µM was 107%.

And the remaining activity at 1.25 µM ([2]; Well no.=5128)?
Its remaining activity at 1.25 µM is 109%.

For `CN(C)CCC[C@@]1(c2ccc(F)cc2)OCc2cc(C#N)ccc21` [Escitalopram], which remaining activity at 3.75 µM ([1]; Well no.=1880) is on record?
The remaining activity at 3.75 µM was 94.3%.

And the remaining activity at 1.25 µM ([2]; Well no.=1880)?
The remaining activity at 1.25 µM was 95.4%.

What does the source list for `O=c1ccc2cc(O)c(O)cc2o1` [Esculetin]?
remaining activity at 3.75 µM ([1]; Well no.=3988): 98.6%; remaining activity at 1.25 µM ([2]; Well no.=3988): 101%

What does the source list for `COC(=O)CCc1ccc(OCC(O)CNC(C)C)cc1` (stereo not shown) [Esmolol (hydrochloride)]?
remaining activity at 3.75 µM ([1]; Well no.=6651): 107%; remaining activity at 1.25 µM ([2]; Well no.=6651): 105%

Which results are given for `COC(=O)CCc1ccc(OCC(O)CNC(C)C)cc1` (stereo not shown) [Esmolol]?
remaining activity at 3.75 µM ([1]; Well no.=2286): 96.8%; remaining activity at 1.25 µM ([2]; Well no.=2286): 96.3%

With `COc1ccc2[nH]c([S@@+]([O-])Cc3ncc(C)c(OC)c3C)nc2c1` [Esomeprazole] as the molecule, how does the remaining activity at 3.75 µM ([1]; Well no.=2032) read?
Its remaining activity at 3.75 µM is 106%.

And the remaining activity at 1.25 µM ([2]; Well no.=2032)?
Its remaining activity at 1.25 µM is 108%.

With `C[C@]12CC[C@@H]3c4ccc(OC(=O)c5ccccc5)cc4CC[C@H]3[C@@H]1CC[C@@H]2O` [Estradiol Benzoate] as the molecule, how does the remaining activity at 3.75 µM ([1]; Well no.=5134) read?
Its remaining activity at 3.75 µM is 104%.

And the remaining activity at 1.25 µM ([2]; Well no.=5134)?
Its remaining activity at 1.25 µM is 105%.

Which results are given for `CCCCC(=O)O[C@H]1CC[C@H]2[C@@H]3CCc4cc(O)ccc4[C@H]3CC[C@]12C` [Estradiol valerate]?
remaining activity at 3.75 µM ([1]; Well no.=5365): 99.5%; remaining activity at 1.25 µM ([2]; Well no.=5365): 95.5%

Which remaining activity at 3.75 µM ([1]; Well no.=2034) does the source give for `C[C@]12CC[C@@H]3c4ccc(O)cc4CC[C@H]3[C@@H]1CC[C@@H]2O` [Estradiol] here?
Its remaining activity at 3.75 µM is 96.6%.

And the remaining activity at 3.75 µM ([1]; Well no.=6449)?
Its remaining activity at 3.75 µM is 101%.

And the remaining activity at 1.25 µM ([2]; Well no.=2034)?
The remaining activity at 1.25 µM was 99.3%.

What about the remaining activity at 1.25 µM ([2]; Well no.=6449) of the same molecule?
The remaining activity at 1.25 µM was 98.6%.

Which results are given for `C[C@]12CC[C@@H]3c4ccc(O)cc4CC[C@H]3[C@@H]1C[C@@H](O)[C@@H]2O` [Estriol]?
remaining activity at 3.75 µM ([1]; Well no.=2036): 104%; remaining activity at 3.75 µM ([1]; Well no.=6489): 108%; remaining activity at 1.25 µM ([2]; Well no.=2036): 105%; remaining activity at 1.25 µM ([2]; Well no.=6489): 104%
